According to the NIST ThermoML archive (doi:10.1016/j.tca.2013.05.039):
Numbers after ± are expanded uncertainties.

Experiments:
[1] = Adiabatic calorimetry
[2] = Molar enthalpy of transition or fusion; details: Adiabatic calorimetry

Compound: C1CCCCC1 [cyclohexane]
- Triple point temperature ([1]; Crystal 2): 186.18 ± 0.049 K
- Triple point temperature ([1]; Crystal): 279.86 ± 0.066 K
- Molar enthalpy of transition or fusion ([2]; Crystal 2): 1.61 ± 0.0163 kcal/mol
- Molar enthalpy of transition or fusion ([2]; Crystal): 0.642 ± 0.0129 kcal/mol
